Experimental findings from US20180170941A1 (priority 2016, published 2018) are described below.

Each structure is given as a SMILES string. A value given as a limit tells only on which side of the number the result lay.

T1 sequence (P31644 32-462): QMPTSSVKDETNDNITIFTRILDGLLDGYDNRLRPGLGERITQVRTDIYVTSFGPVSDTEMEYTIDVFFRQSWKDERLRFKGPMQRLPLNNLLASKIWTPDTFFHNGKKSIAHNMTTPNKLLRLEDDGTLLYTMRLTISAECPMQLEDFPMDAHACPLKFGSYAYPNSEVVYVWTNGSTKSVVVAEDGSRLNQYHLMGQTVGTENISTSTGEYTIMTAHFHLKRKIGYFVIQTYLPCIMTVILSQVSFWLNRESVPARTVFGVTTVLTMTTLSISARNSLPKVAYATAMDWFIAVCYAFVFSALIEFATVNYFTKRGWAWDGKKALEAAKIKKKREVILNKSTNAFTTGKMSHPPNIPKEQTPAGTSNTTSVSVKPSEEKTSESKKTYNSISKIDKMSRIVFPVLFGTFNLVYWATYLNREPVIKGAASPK
T1 sequence (P28472 26-473 partner): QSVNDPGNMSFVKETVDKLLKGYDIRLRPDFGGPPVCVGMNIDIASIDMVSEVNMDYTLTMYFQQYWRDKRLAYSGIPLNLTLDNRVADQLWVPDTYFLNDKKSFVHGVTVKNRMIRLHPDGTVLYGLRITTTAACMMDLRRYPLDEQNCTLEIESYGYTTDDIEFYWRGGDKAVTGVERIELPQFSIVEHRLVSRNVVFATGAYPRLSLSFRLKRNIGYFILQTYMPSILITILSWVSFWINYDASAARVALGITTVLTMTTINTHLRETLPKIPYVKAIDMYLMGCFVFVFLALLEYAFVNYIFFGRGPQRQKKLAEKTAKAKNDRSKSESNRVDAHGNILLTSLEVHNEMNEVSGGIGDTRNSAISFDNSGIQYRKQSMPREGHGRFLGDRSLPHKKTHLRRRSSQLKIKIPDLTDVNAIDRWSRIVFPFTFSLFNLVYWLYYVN
T1 sequence (P18507 40-475): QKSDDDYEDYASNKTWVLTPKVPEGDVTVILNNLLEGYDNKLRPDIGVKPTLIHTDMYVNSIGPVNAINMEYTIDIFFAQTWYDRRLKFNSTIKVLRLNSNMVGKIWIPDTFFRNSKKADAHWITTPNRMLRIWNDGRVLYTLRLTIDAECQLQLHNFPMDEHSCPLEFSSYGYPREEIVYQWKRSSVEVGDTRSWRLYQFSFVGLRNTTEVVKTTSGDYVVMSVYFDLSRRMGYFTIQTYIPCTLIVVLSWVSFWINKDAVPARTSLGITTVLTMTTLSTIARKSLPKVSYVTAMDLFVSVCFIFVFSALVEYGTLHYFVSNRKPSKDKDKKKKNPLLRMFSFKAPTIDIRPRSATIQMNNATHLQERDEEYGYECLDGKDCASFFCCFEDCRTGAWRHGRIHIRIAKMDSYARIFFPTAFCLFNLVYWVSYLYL

The first assay addresses T1, α5β3γ2 GABAA receptors (Ltk cell membranes) (Homo sapiens, UniProt P18507+P31644).
T1 construct: membranes
Put plainly: Binding activity of test compounds on GABAAR: inhibition of [3H]Ro15-1788 binding.
Conditions: not given
A digest of the protocol: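 Membranes from dexamethasone-induced Ltk cells (α5 line: 0.5 μM, 1 day); binding with [3H]Ro15-1788 for 1 h at 4 °C in 50 mM KH2PO4, 1 mM EDTA, 0.2 M KCl, pH 7.4, 0.2 mg/ml α5 protein. Nonspecific binding defined by 10 μM diazepam; filtration, scintillation counting, triplicates.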
Take `CC#Cc1nc(C)n2c1Cn1c(COC(C)C)nnc1-c1cc(Cl)ccc1-2` [Compound 306]: the Ki was over 1000 nM.

Compound `CC(C)OCc1nnc2n1Cc1c(-c3cnco3)ncn1-c1ccc(Cl)cc1-2` [Compound 315] yielded a Ki of over 1000 nM.

The same assay, now with this note: GABA α5 Binding Ki Values, inhibition of [3H]Ro15-1788 binding; reported as ranges.
`CCOCc1nnc2n1Cc1c(-c3cc(C)no3)ncn1-c1ccc(Cl)cc1-2` [Compound 278] had a Ki of under 100 nM.

In turn, `CCOC(=O)c1ncn2c1Cc1c(-c3ccccc3Cl)nnn1-c1cc(OC)ccc1-2` [Compound 279] gave a Ki of over 1000 nM.

Turning to `Cc1cc(-c2ncn3c2Cn2c(COC(C)C)nnc2-c2cc(Cl)ccc2-3)on1` [Compound 281], the inhibition constant (Ki) lay in the range of 100 to 1000 nM.

Compound `COCc1nnc2n1Cc1c(C3=N[C@H](C)CO3)ncn1-c1ccc(Cl)cc1-2` [Compound 282] showed an inhibitory constant (Ki) of under 100 nM.

As for `COCc1nnc2n1Cc1c(C3=N[C@@H](C)CO3)ncn1-c1ccc(Cl)cc1-2` [Compound 283], the Ki was 100 to 1000 nM.

For `C#Cc1ccc2c(c1)-c1nnc(COC)n1Cc1c(C3=N[C@H](C(C)C)CO3)ncn1-2` [Compound 284], the Ki was in the range of 100 to 1000 nM.

As to `COCc1nnc2n1Cc1c(C#Cc3ccccc3)ncn1-c1ccc(Cl)cc1-2` [Compound 285], the Ki was under 100 nM.

Take `CC(C)OCc1nnc2n1Cc1c(C3=N[C@H](C)CO3)ncn1-c1ccc(Cl)cc1-2` [Compound 286]: the inhibition constant Ki fell in the range of 100 to 1000 nM.

On to `CC(C)OCc1nnc2n1Cc1c(C3=N[C@@H](C)CO3)ncn1-c1ccc(Cl)cc1-2` [Compound 287], for which the inhibition constant (Ki) is 100 to 1000 nM.

Take `C#Cc1ncn2c1Cn1c(COC(C)C)nnc1-c1cc(Cl)ccc1-2` [Compound 288]: the inhibitory constant (Ki) was under 100 nM.

Consider `COc1ccc2c(c1)-n1nncc1Cc1c(C3=N[C@@H](c4ccccc4)CO3)ncn1-2` [Compound 289], for which the Ki was under 100 nM.

`COc1ccc2c(c1)-n1nncc1Cc1c(C3=N[C@H](C)CO3)ncn1-2` [Compound 291] displayed an inhibition constant Ki of under 100 nM.

Turning to `COc1ccc2c(c1)-n1nncc1Cc1c(C3=N[C@@H](C)CO3)ncn1-2` [Compound 292], the inhibition constant Ki was in the range of 100 to 1000 nM.

In turn, `COCc1nnc2n1Cc1c(C#Cc3ccccc3C)ncn1-c1ccc(Cl)cc1-2` [Compound 293] had a Ki of under 100 nM.

On to `COCc1nnc2n1Cc1c(C3=NC[C@@H](C)O3)ncn1-c1ccc(Cl)cc1-2` [Compound 294], for which the Ki was under 100 nM.

`COCc1nnc2n1Cc1c(C3=NC[C@H](C)O3)ncn1-c1ccc(Cl)cc1-2` [Compound 295] came in with a Ki of under 100 nM.

In turn, `COCc1nnc2n1Cc1c(-c3ncc(C)o3)ncn1-c1ccc(Cl)cc1-2` [Compound 296] registered a Ki of under 100 nM.

Take `COCc1nnc2n1Cc1c(C3=NC(C)(C)CO3)ncn1-c1ccc(Cl)cc1-2` [Compound 297]: the Ki was 100 to 1000 nM.

`COCc1nnn2c1Cc1c(C3=N[C@@H](C)CO3)ncn1-c1ccc(OC)cc1-2` [Compound 298] registered a Ki of 100 to 1000 nM.

In turn, `COCc1nnn2c1Cc1c(C3=N[C@@H](Cc4ccccc4)CO3)ncn1-c1ccc(Cl)cc1-2` [Compound 299] came in with a Ki of 100 to 1000 nM.

As to `COCc1nnn2c1Cc1c(C3=N[C@@H](C)CO3)ncn1-c1ccc(Cl)cc1-2` [Compound 300], the inhibition constant (Ki) lay within 100 to 1000 nM.

Compound `C#Cc1ccc2c(c1)-c1nnc(COC)n1Cc1c(-c3nc(-c4ccccc4)co3)ncn1-2` [Compound 302] displayed an inhibitory constant (Ki) of under 100 nM.

Compound `Cc1cc(-c2ncn3c2Cn2c(COCC(F)(F)F)nnc2-c2cc(Cl)ccc2-3)on1` [Compound 303] registered a Ki of 100 to 1000 nM.

Compound `FC(F)(F)COCc1nnc2n1Cc1c(C3=N[C@@H](c4ccccc4)CO3)ncn1-c1ccc(Cl)cc1-2` [Compound 304] had a Ki of under 100 nM.

Consider `C#Cc1nc(C)n2c1Cn1c(COC(C)C)nnc1-c1cc(Cl)ccc1-2` [Compound 305], for which the inhibitory constant (Ki) was 100 to 1000 nM.

On to `CCOCc1nnc2n1Cc1c(C#Cc3ccccc3F)ncn1-c1ccc(Cl)cc1-2` [Compound 307], for which the inhibitory constant (Ki) was under 100 nM.

The compound `CCOC(=O)c1ncn2c1Cn1c(COCC(F)(F)F)nnc1-c1cc(Cl)ccc1-2` [Compound 308] came in with an inhibition constant Ki of under 100 nM.

In turn, `FC(F)(F)COCc1nnc2n1Cc1c(C3=NCCO3)ncn1-c1ccc(Cl)cc1-2` [Compound 309] yielded a Ki of 100 to 1000 nM.

`Cc1ccccc1C#Cc1ncn2c1Cn1c(COC(C)C)nnc1-c1cc(Cl)ccc1-2` [Compound 310] registered an inhibition constant Ki of under 100 nM.

For `CCOCc1nnc2n1Cc1c(C#Cc3ccccc3C)ncn1-c1ccc(Cl)cc1-2` [Compound 311], the Ki was under 100 nM.

`Cc1coc(-c2ncn3c2Cn2c(COCC(F)(F)F)nnc2-c2cc(Cl)ccc2-3)n1` [Compound 312] displayed a Ki of 100 to 1000 nM.

`FC(F)(F)COCc1nnc2n1Cc1c(-c3nc(-c4ccccc4)co3)ncn1-c1ccc(Cl)cc1-2` [Compound 313] had a Ki of under 100 nM.

`COCc1nnc2n1Cc1c(-c3cnco3)ncn1-c1ccc(Cl)cc1-2` [Compound 314] had an inhibition constant Ki of 100 to 1000 nM.

For the compound `CC(C)OCc1nnc2n1Cc1c(C3=NCCO3)ncn1-c1ccc(Cl)cc1-2` [Compound 316], the Ki was in the range of 100 to 1000 nM.

For the compound `CCOCc1nnc2n1Cc1c(C3=NCCO3)ncn1-c1ccc(Cl)cc1-2` [Compound 317], the inhibitory constant (Ki) was under 100 nM.

Regarding `CCOC(=O)c1ncn2c1Cc1c(C#Cc3ccccc3)nnn1-c1cc(OC)ccc1-2` [Compound 318], the Ki was 100 to 1000 nM.

Regarding `COCc1nnc2n1Cc1c(C3=N[C@@H](c4ccccc4F)CO3)ncn1-c1ccc(Cl)cc1-2` [Compound 319], the Ki was under 100 nM.

In the case of `COCc1nnc2n1Cc1c(C3=N[C@@H](c4ccc(F)cc4)CO3)ncn1-c1ccc(Cl)cc1-2` [Compound 320], the Ki was under 100 nM.

In turn, `CC(C)OCc1nnc2n1Cc1c(C3=N[C@@H](c4ccccc4F)CO3)ncn1-c1ccc(Cl)cc1-2` [Compound 321] came in with a Ki of 100 to 1000 nM.

`CCOCc1nnc2n1Cc1c(C3=N[C@@H](c4ccccc4F)CO3)ncn1-c1ccc(Cl)cc1-2` [Compound 322] yielded a Ki of under 100 nM.

Take `COCc1nnc2n1Cc1c(-c3nc(-c4ccccc4F)co3)ncn1-c1ccc(Cl)cc1-2` [Compound 323]: the Ki was under 100 nM.

Regarding `COCc1nnc2n1Cc1c(-c3nc(-c4ccc(F)cc4)co3)ncn1-c1ccc(Cl)cc1-2` [Compound 324], the inhibition constant Ki is under 100 nM.

As to `CCOCc1nnc2n1Cc1c(C3=N[C@@H](c4ccc(F)cc4)CO3)ncn1-c1ccc(Cl)cc1-2` [Compound 325], the inhibition constant Ki is under 100 nM.

As to `CC(C)OCc1nnc2n1Cc1c(C3=N[C@@H](c4ccc(F)cc4)CO3)ncn1-c1ccc(Cl)cc1-2` [Compound 326], the Ki was under 100 nM.

Consider `CC(C)OCc1nnc2n1Cc1c(-c3ncco3)ncn1-c1ccc(Cl)cc1-2` [Compound 327], for which the inhibition constant (Ki) is under 100 nM.

The compound `C#Cc1ncn2c1Cn1c(COC)nnc1-c1cc(OC)ccc1-2` [Compound 328, 5-ethynyl-15-methoxy-9-(methoxymethyl)-2,4,8,10,11-pentaazatetracyclo[11.4.0.0^2,^6.0^8,^12]heptadeca-1(17),3,5,9,11,13,15-heptaene] showed an inhibitory constant (Ki) of under 100 nM.

For `COCc1nnc2n1Cc1c(C3=N[C@@H](c4ccccc4C)CO3)ncn1-c1ccc(Cl)cc1-2` [Compound 330], the Ki was under 100 nM.

Turning to `COCc1nnc2n1Cc1c(C3=N[C@@H](c4ccccc4OC)CO3)ncn1-c1ccc(Cl)cc1-2` [Compound 331], the Ki is under 100 nM.

For `COCc1nnc2n1Cc1c(C3=N[C@@H](c4ccc(OC)cc4)CO3)ncn1-c1ccc(Cl)cc1-2` [Compound 332], the Ki was under 100 nM.

The compound `COCc1nnc2n1Cc1c(C3=N[C@@H](c4cccc(OC)c4)CO3)ncn1-c1ccc(Cl)cc1-2` [Compound 333] registered a Ki of under 100 nM.

`COCc1nnc2n1Cc1c(C3=N[C@@H](c4ccc(Cl)cc4)CO3)ncn1-c1ccc(Cl)cc1-2` [Compound 334] yielded an inhibition constant (Ki) of under 100 nM.

Consider `COCc1nnc2n1Cc1c(C3=N[C@@H](c4cc(F)ccc4F)CO3)ncn1-c1ccc(Cl)cc1-2` [Compound 335], for which the inhibition constant Ki was under 100 nM.

Take `COCc1nnc2n1Cc1c(C3=N[C@@H](c4cccc(C(F)(F)F)c4)CO3)ncn1-c1ccc(Cl)cc1-2` [Compound 336]: the inhibition constant Ki lay in the range of 100 to 1000 nM.

As to `COCc1nnc2n1Cc1c(C3=N[C@@H](c4ccc(C(F)(F)F)cc4)CO3)ncn1-c1ccc(Cl)cc1-2` [Compound 337], the Ki is under 100 nM.

For the compound `COCc1nnc2n1Cc1c(C3=N[C@@H](c4cccc5ccccc45)CO3)ncn1-c1ccc(Cl)cc1-2` [Compound 338], the Ki is under 100 nM.

In turn, `CC#Cc1ncn2c1Cn1c(COC)nnc1-c1cc(Cl)ccc1-2` [Compound 339] showed an inhibition constant (Ki) of under 100 nM.

In the case of `COCc1nnc2n1Cc1c(C3=N[C@H](c4ccccc4)CO3)ncn1-c1ccc(OC)cc1-2` [Compound 340], the inhibitory constant (Ki) was under 100 nM.

In the case of `CCOCc1nnc2n1Cc1c(-c3ncco3)ncn1-c1ccc(Cl)cc1-2` [Compound 341], the inhibition constant Ki was under 100 nM.

In turn, `COCc1nnc2n1Cc1c(C3=N[C@@H](c4ccccc4)CO3)ncn1-c1ccc(OC)cc1-2` [Compound 343] showed a Ki of under 100 nM.

Compound `COc1ccc2c(c1)-n1nncc1Cc1c(-c3ncco3)ncn1-2` [Compound 344] registered a Ki of under 100 nM.

Turning to `CCC#Cc1ncn2c1Cn1c(COC)nnc1-c1cc(Cl)ccc1-2` [Compound 345], the Ki is under 100 nM.

Regarding `COCc1nnc2n1Cc1c(C#CCc3ccccc3)ncn1-c1ccc(Cl)cc1-2` [Compound 346], the inhibition constant (Ki) is under 100 nM.

As for `COc1ccc2c(c1)-n1nnc(C)c1Cc1c(-c3ncco3)ncn1-2` [Compound 347], the Ki fell in the range of 100 to 1000 nM.

`COCc1nnc2n1Cc1c(-c3nc4ccccc4o3)ncn1-c1ccc(Cl)cc1-2` [Compound 348]: the inhibition constant Ki lay within 100 to 1000 nM.

In turn, `Clc1ccc2c(c1)-c1nnc(COc3ccccc3)n1Cc1c(-c3ncco3)ncn1-2` [Compound 349] showed a Ki of under 100 nM.

`Clc1ccc2c(c1)-c1nnc(COCc3ccccc3)n1Cc1c(-c3ncco3)ncn1-2` [Compound 350]: the inhibitory constant (Ki) was under 100 nM.

The compound `C#Cc1ncn2c1Cn1c(COCc3ccccc3)nnc1-c1cc(Cl)ccc1-2` [Compound 351] yielded an inhibitory constant (Ki) of under 100 nM.
